{"source": "patent US20070161655A1", "about": "“Fungicidal mixtures” (BASF Aktiengesellschaft, priority 2004, published 2007)", "system": "Corticium sasakii", "test": "Activity against sheath blight on rice caused by Corticium sasakii (protective spray, rice plants cultivar Tai-Nong 67)", "assay_type": "in vivo", "details": "individual active compound, evaluated after 11 days, untreated control 85% infection", "procedure": "The active compounds, separately or jointly, were prepared as a stock solution comprising 0.25% by weight of active compound in acetone or DMSO. 1% by weight of the emulsifier Uniperol® EL (wetting agent having emulsifying and dispersing action based on ethoxylated alkylphenols) was added to this solution, and the mixture was appropriately diluted with water to the desired concentration.\nPots of rice plants of the cultivar “Tai-Nong 67” were sprayed to runoff point with an aqueous suspension having the concentration of active compound stated below. The next day, oat grains infected with Corticium sasakii were planted in the pots (in each case 5 grains per pot). The plants were then placed in a chamber at 26° C. and maximum atmospheric humidity. After 11 days, the sheath blight on the untreated but infected control plants had developed to such an extent that the infection could be determined visually in %.\nEvaluation is carried out by determining the infected leaf areas in percent. These percentages were converted into efficacies.\nThe efficacy (E) is calculated as follows using Abbot's formula: E=(1−α/β)·100 • α corresponds to the fungal infection of the treated plants in % and • β corresponds to the fungal infection of the untreated (control) plants in %\nAn efficacy of 0 means that the infection level of the treated plants corresponds to that of the untreated control plants; an efficacy of 100 means that the treated plants are not infected.\nThe expected efficacies of the mixtures of active compounds are determined using Colby's formula [R. S. Colby, Weeds, 15, 20-22 (1967)] and are compared with the observed efficacies.\nColby's formula: E=x+y−x·y/100 • expected efficacy, expressed in % of the untreated control, when using the mixture of the active compounds A and B at the concentrations a and b • x efficacy, expressed in % of the untreated control, when using the active compound A at the concentration a\ny efficacy, expressed in % of the untreated control, when using the active compound B at the concentration b"}
{"smiles": "CC1CCN(c2c(-c3c(F)cc(F)cc3F)c(Cl)nc3ncnn23)CC1", "note": "[I, 5-chloro-7-(4-methylpiperidin-1-yl)-6-(2,4,6-trifluorophenyl)-[1,2,4]triazolo[1,5-a]pyrimidine]", "values": [{"measurement": "Efficacy in % of the untreated control", "setting": "4 ppm in the spray liquor", "value": 30, "unit": "%"}, {"measurement": "Efficacy in % of the untreated control", "setting": "16 ppm in the spray liquor", "value": 65, "unit": "%"}]}
{"smiles": "CN(C)S(=O)(=O)N(SC(F)(Cl)Cl)c1ccccc1", "note": "[II (dichlofluanid), N-dichlorofluoromethylthio-N′,N′-dimethyl-N-phenylsulfonamide]", "values": [{"measurement": "Efficacy in % of the untreated control", "setting": "4 ppm in the spray liquor", "value": 0, "unit": "%"}, {"measurement": "Efficacy in % of the untreated control", "setting": "16 ppm in the spray liquor", "value": 0, "unit": "%"}]}
